“Also recorded” adds a separate entry of the source. Read-outs that look alike come from different tables or passages of the source. Each block holds one molecule with its values, some of them ahead of it.
Tests used:
[1] = tested on: BAF-BO3 cells transfected with pRcCMV-IL-2Rβ; test: [3H]-TdR proliferation assay, BAF-BO3 cells expressing human IL-2Rβ; type: cell-based, murine; settings: for cell proliferation ([3H]-TdR incorporation): cells expressing wild-type human IL-2Rβ subunit
Method: (§1) The BAF-BO3 cell line is an IL-3-dependent, murine pro-B cell line. A BAF-BO3 cell line that was pre-selected for high expression of the IL-2Rα subunit was kindly provided by T. Taniguchi (Osaka, Japan; Hatakeyama et al., Cell 59:837, 1989). BAF-BO3 cells were transfected with vector control (pRcCMV-0) or cDNA encoding the human IL-2Rβ subunit cloned into pRcCMV (pRcCMV-IL-2Rβ), by electroporation at 350 volts and 500 μFarads using 20 μg of ScaI linearized plasmid. Transfected cells were selected in the presence of 1 mg/ml G418 and tested for the expression of the IL-2Rβ subunit by fluorescence activated cell sorting (FACS) analysis as described (Maslinski et al., Int. Immunol. 4:509, 1992; Hataleyama et al., Cell 59:837, 1989).
IL-3 dependent BAF-BO3 cells, which constitutively express the IL-2Rγ subunit, were transfected with a control pRcCMV construct (pRcCMV-0) or a pRcCMV construct containing cDNA encoding the full-length human IL-2Rβ_subunit and the neo^r gene (pRcCMV-IL-2Rβ). G418 resistant clones were then selected. Cells that were selected in this way were used to test the biological activity of FLAG-HMK-IL-15. […] Cells were washed twice to remove the medium containing the growth factor IL-3, and starved for 16 hours in RPMI-1640 medium supplemented with 10% FCS, penicillin (0.5 U/ml), and streptomycin (0.5 μg/ml). Cells were then plated at 2×10^4 cells/well, stimulated with FLAG-HMK-IL-15, and cultured for 72 hours at 37° C. in an atmosphere containing 5% CO2. This was followed by a 14 hour “pulse” with 1 μCi of [^3H]-TdR. The BAF-BO3 cells were then harvested and cell-associated radioactivity was measured by scintillation counting as described above.
In order to study the effect of various IL-15 related proteins, including the mutant polypeptides described above, on the proliferation of BAF-BO3 cells, the following experiment was performed in vitro. BAF-BO3 cells were transfected in culture with DNA from either pRcCMV-IL-2Rβ or pRcCMV-0.

[2] = tested on: IL-15 binding sites on PHA-activated human PBMCs; test: Flow cytometry staining of PHA-activated PBMCs (anti-FLAG biotinylated Ab, streptavidin-RED670)
Method: Resting or PHA-activated PBMCs (3×10^5 cells/tube) were washed twice with ice-cold PBS/0.02% sodium azide and incubated in medium containing FLAG-HMK-IL-15 (0.1 μg/100 μl) or, as a control, in medium alone. The incubation was carried out on ice for 30 minutes. The cells were then washed with PBS and incubated for two sequential 30 minute periods at 4° C. with biotin-conjugated anti-FLAG monoclonal antibody (0.5 μg/100 μl) and streptavidin-RED670 (0.5 μg/100 μl). The cells were then counterstained with CD25-PE, CD14-PE, CD16-PE, CD122-PE, CD4-FITC, or CD8-FITC, as indicated. […] Cell surface phenotype was analyzed using FACScan (Becton/Dickinson, Calif.) and Cell Quest software.
The FLAG-HMK-IL-15 fusion protein, biotinylated anti-FLAG antibody, and streptavidin-RED670 were employed to detect expression of IL-15 binding sites on human PBMCs by cytofluorometric analysis. […] The stained cells were analyzed by flow cytometry (FIG. 4A). […] Both activated CD4^+ and CD8^+ cells express IL-15α chains (FIG. 4C); Activation induced IL-15α chains were also detected on CD14^+ (monocyte/macrophage) cells and CD16^+ (natural killer) cells.
PHA-activated PBMCs were washed and incubated with medium alone, or with the FLAG-HMK-IL-15 double mutant. […] The stained cells were analyzed by flow cytometry (FIG. 17).

IL-15Rα subunit = molecular target: T1, IL-15Rα subunit (Homo sapiens, UniProt Q13261); test: Cross-linking of [32P]-FLAG-HMK-IL-15 to PHA-activated PBMCs (DSS, SDS-PAGE, autoradiography); type: binding
T1 construct: endogenous in cells
Method: After 72 hours in culture, PHA-activated PBMCs were washed twice in cold phosphate-buffered saline (PBS), and 10^7 cells/ml were incubated for 30 minutes at 4° C. in 400 μl of RMPI-1640 medium supplemented with 25 mM HEPES (pH 7.4), 10% FCS, penicillin (0.5 U/ml), and streptomycin (0.5 μg/ml). Supplemented RPMI-1640 medium (20 μl) containing 1 μg of recombinant human IL-15 as a control for non-specific binding or medium alone was then added, and the incubation was continued for 15 minutes before 20 μl of medium containing [^32P]-labeled FLAG-HMK-IL-15 (1 ng, 500,000 cpm) was added to each sample. After further incubation for 1 hour at 4° C., the cells were washed with PBS and resuspended in 250 μl of PBS. Disuccinimidyl suberate (DDS; 1 mM), a cross-linker, was added, and cross-linking was performed as described by Tsudo et al. (Proc. Natl. Acad. Sci. USA 83:9694, 1986). The cross-linked cells were collected by centrifugation, washed, solubilized with extraction buffer (2% Nonidet P-40, 0.14 M NaCl, 25 mM HEPES (pH 7.4), 1 mM phenyl-methylsulfonyl fluoride) and centrifuged. Proteins present in the supernatants of these cell lysates were separated by 8% SDS-PAGE under reducing conditions. An autoradiogram was developed from the dry gel after exposure at −70° C. overnight. […]

[3] = tested on: PHA-activated human PBMCs; test: [3H]-TdR proliferation assay, PHA-activated human PBMCs; type: cell-based; settings: PHA-activated PBMCs re-stimulated with reagent
[4] = tested on: BAF-BO3 cells transfected with pRcCMV-0; test: [3H]-TdR proliferation assay, BAF-BO3 vector control cells; type: cell-based, murine; settings: vector lacking IL-2Rβ chain sequences
Method: as §1
IL-3 dependent BAF-BO3 cells, which constitutively express the IL-2Rγ subunit, were transfected with a control pRcCMV construct (pRcCMV-0) or a pRcCMV construct containing cDNA encoding the full-length human IL-2Rβ_subunit and the neo^r gene (pRcCMV-IL-2Rβ). G418 resistant clones were then selected. Cells that were selected in this way were used to test the biological activity of FLAG-HMK-IL-15. […] The BAF-BO3 cells were then harvested and cell-associated radioactivity was measured by scintillation counting as described above. […]

[5] = tested on: leukemia cells (MOLT-14, YT, HuT-102, 2A, 2B); test: Flow cytometry staining of leukemic cell lines with FLAG-HMK-IL-15; type: binding
Method: The cells treated were from the leukemic cell lines MOLT-14, YT, HuT-102, and from cell lines currently being established at Beth Israel Hospital (Boston, Mass.), and designated 2A and 2B. The cultured cells were washed and incubated with either medium alone (tracing alone) or with medium containing the FLAG-HMK-IL-15 polypeptide (tracing filled in). The cells were then incubated with the biotinylated anti-FLAG antibody and stained with RED670-conjugated streptavidin. The stained cells were analyzed by flow cytometry.
The cells treated were obtained from the leukemic cell lines MOLT-14, YT, HuT-102, and from cell lines currently being established at Beth Israel Hospital (Boston, Mass.), and named 2A and 2B. The cultured cells were washed and incubated with either medium alone or with medium containing the FLAG-HMK-IL-15 wild-type polypeptide (FIG. 18). The cells were then incubated with the biotinylated anti-FLAG antibody and stained with RED670-conjugated streptavidin. The stained cells were analyzed by flow cytometry.

PHA-activated PBMCs = test: Proliferative response to IL-2 or IL-15 of PBMCs pre-treated with immunosuppressive drugs and PHA; settings: cells pre-treated with PHA and drug, washed, cultured with IL-2 2 days
[6] = tested on: IL-2Rαγ+ BAF-BO3 cells that express mutant S− IL-2Rβ subunit; test: Proliferation assay, BAF-BO3 cells expressing mutant S− IL-2Rβ subunit; type: cell-based, murine; settings: IL-2Rβ lacking serine-rich region (S−), 38 hours

T1 sequence (Q13261 31-267): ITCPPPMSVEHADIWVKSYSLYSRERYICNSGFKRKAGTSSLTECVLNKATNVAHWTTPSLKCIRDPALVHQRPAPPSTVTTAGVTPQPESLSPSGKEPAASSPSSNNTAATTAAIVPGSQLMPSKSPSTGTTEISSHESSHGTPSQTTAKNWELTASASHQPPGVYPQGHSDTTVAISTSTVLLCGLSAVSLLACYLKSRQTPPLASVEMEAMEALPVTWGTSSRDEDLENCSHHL

Molecule: double mutant IL-15: human IL-15 protein bearing a double mutation (Q149D; Q156D), FLAG-HMK tagged
- inhibition of BAF-BO3 proliferation ([1]; IL-15 + double mutant, 30 μl (approximately 50 μg/ml) versus 20 μL of the same concentration): inhibited proliferation more completely
- cell proliferation ([3H]-TdR incorporation) [1]: did not proliferate
- binding to PHA-activated human PBMCs ([2]; flow cytometry): bind PHA-activated human PBMCs

- binding to the IL-15Rα subunit on mitogen-activated PBMCs (IL-15Rα subunit; [32P]-labeled protein, DSS cross-linking, 4° C.): site specific binding
Molecule: FLAG-HMK-IL-15: IL-15 polypeptide having an N-terminus covalently bound to the 18 amino acid FLAG-HMK-sequence
- cell proliferation ([3H]-TdR incorporation) [3]: proliferate in response to
- cell proliferation ([3H]-TdR incorporation) [1]: stimulates proliferation; also recorded: stimulated cellular proliferation
- cell proliferation ([3H]-TdR incorporation) [4]: does not, however, stimulate the proliferation
- binding to leukemia cells [5]: bind leukemia cells

Molecule: O=c1c(-c2ccc(O)cc2)coc2cc(O)cc(O)c12 [genistein]
- cell viability (human PBMCs; genistein 10 μg/ml, 3 days of incubation): 659±15 % of the control

Molecule: FLAG-HMK-IL-15 Q149D single mutant: IL-15 single mutant, glutamine at position 149 changed to aspartate, FLAG-HMK tagged
- cell proliferation ([3H]-TdR incorporation) [1]: stimulated cellular proliferation

Molecule: C[C@@H]1C[C@H]2[C@@H]3CCC4=CC(=O)C=C[C@]4(C)[C@@]3(F)[C@@H](O)C[C@]2(C)[C@@]1(O)C(=O)CO [dexamethasone]
- proliferative response to IL-2 (PHA-activated PBMCs): not inhibited

Molecule: CO[C@H]1C[C@@H]2CC[C@@H](C)[C@@](O)(O2)C(=O)C(=O)N2CCCC[C@H]2C(=O)O[C@H]([C@H](C)C[C@@H]2CC[C@@H](O)[C@H](OC)C2)CC(=O)[C@H](C)/C=C(\C)[C@@H](O)[C@@H](OC)C(=O)[C@H](C)C[C@H](C)/C=C/C=C/C=C/1C [rapamycin]
- cell viability (human PBMCs; human, 3 days, 10 ng/ml): 8.5%±10%

- competition of [32P]-FLAG-HMK-IL-15 cross-linked band (IL-15Rα subunit; molar excess of competitor): failed to detect
Molecule: IL-15: recombinant human IL-15 obtained from PeproTech
- cell proliferation ([3H]-TdR incorporation) [1]: stimulate the proliferation; also recorded: stimulated cellular proliferation
- cell proliferation [6]: neither cytokine is able to stimulate
- blocking of FLAG-HMK-IL-15 binding to PHA activated PBMCs ([2]; molar excess of competitor): blocked

Reference: patent publication US7834152B2, “Antagonists of interleukin-15” (Beth Israel Deaconess Medical Center, Inc., priority 1996, dated 2010)
